Test results from ChEMBL document CHEMBL1147408, “Modulation of selective serotonin reuptake inhibitor and 5-HT1A antagonist activity in 8-aza-bicyclo[3.2.1]octane derivatives of 2,3-dihydro-1,4-benzodioxane” (Bioorg Med Chem Lett, 2004).

Experiments:
[1] = target: T1, Sodium-dependent serotonin transporter (Homo sapiens, UniProt P31645); test: Inhibitory activity of compound against serotonin transport by RB5-5-HT transporter
[2] = target: T2, 5-hydroxytryptamine receptor 1A (Homo sapiens) (UniProt P08908); test: Inhibition of [3H]8-OH-DPAT binding to human 5-hydroxytryptamine 1A receptor at 1000 nM compound concentration
T2 sequence (whole entry): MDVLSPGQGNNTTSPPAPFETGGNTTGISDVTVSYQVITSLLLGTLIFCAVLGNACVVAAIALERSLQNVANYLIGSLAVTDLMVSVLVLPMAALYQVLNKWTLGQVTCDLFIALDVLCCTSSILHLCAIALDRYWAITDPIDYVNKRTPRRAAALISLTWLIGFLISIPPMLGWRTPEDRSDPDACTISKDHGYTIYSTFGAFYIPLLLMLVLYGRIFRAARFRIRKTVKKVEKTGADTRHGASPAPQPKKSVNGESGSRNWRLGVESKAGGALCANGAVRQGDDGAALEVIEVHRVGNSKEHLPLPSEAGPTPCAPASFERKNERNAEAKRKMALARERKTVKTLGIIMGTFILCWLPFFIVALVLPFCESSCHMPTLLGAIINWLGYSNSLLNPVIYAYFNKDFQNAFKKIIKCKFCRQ

[3] = target: T3, Adrenergic receptor alpha-1 (Rattus norvegicus, UniProt P15823+P23944+P43140); test: Displacement of [3H]prazosin from alpha-1 adrenergic receptor; assay type: protein assay
T3 sequence (P15823 whole entry): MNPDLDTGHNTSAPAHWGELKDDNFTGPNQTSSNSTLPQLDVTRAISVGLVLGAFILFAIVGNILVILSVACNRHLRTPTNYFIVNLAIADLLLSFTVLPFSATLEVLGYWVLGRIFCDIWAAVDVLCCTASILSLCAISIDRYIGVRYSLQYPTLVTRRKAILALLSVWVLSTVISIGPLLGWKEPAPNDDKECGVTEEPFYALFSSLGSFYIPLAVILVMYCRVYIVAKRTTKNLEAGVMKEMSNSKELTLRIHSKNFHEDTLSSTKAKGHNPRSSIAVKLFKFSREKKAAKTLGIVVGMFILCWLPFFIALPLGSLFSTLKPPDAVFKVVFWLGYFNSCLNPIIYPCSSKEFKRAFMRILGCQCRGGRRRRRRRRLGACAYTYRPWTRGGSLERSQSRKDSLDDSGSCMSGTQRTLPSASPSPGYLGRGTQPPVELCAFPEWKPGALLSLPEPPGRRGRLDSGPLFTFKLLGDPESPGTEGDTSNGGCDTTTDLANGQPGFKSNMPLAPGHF
T3 sequence (P23944 whole entry): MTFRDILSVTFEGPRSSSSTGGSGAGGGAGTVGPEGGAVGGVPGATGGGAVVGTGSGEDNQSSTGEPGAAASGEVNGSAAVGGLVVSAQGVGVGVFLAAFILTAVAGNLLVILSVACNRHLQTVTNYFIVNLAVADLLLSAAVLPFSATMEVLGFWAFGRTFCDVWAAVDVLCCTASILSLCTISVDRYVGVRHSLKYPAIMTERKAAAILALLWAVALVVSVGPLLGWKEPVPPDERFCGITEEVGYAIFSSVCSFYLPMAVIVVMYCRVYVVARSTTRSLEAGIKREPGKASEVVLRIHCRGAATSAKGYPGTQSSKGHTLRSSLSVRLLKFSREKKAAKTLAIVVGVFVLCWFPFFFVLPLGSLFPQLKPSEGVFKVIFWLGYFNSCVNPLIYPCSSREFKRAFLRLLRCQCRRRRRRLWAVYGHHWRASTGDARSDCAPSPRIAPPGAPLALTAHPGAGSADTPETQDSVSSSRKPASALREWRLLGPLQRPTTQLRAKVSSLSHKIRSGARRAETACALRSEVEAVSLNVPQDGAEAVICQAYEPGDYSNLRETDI
T3 sequence (P43140 whole entry): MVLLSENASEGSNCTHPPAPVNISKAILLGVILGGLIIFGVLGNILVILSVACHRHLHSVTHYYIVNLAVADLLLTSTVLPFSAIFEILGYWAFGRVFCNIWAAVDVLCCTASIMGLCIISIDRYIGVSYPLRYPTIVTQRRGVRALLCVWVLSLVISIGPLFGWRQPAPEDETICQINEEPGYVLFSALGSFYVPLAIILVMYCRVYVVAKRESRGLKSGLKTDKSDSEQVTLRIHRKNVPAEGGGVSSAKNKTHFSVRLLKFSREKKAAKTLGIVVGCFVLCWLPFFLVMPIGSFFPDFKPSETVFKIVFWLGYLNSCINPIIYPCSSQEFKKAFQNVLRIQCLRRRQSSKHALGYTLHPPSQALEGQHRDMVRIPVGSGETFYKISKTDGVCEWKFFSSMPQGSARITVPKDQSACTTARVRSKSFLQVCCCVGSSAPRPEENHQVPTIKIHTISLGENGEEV

[4] = target: T1, Sodium-dependent serotonin transporter; test: Inhibitory activity of compound against serotonin transport by HC5-5-HT transporter
[5] = target: T4, 5-hydroxytryptamine receptor 1A (Homo sapiens, UniProt P08908); test: Displacement of [3H]8-OH-DPAT from human 5-hydroxytryptamine 1A receptor expressed in CHO cells; assay type: cell-based
T4 sequence (P08908 whole entry): T2 sequence (whole entry)

[6] = target: Sodium-dependent serotonin transporter (Rattus norvegicus) (UniProt P31652); test: Inhibition of serotonin transporter; parameters: concentration or dose not given beside the values; details: concentration not given here
[7] = target: T4, 5-hydroxytryptamine receptor 1A; test: Agonistic activity of compound towards 5-hydroxytryptamine 1A receptor was evaluated by forskolin stimulated cAMP assay; assay type: functional
[8] = target: T2, 5-hydroxytryptamine receptor 1A (Homo sapiens); test: (§1) Agonistic activity of compound towards 5-hydroxytryptamine 1A receptor was evaluated by [35S]GTP-gamma-S, stimulated cAMP assay; assay type: functional
[9] = target: T4, 5-hydroxytryptamine receptor 1A; test: as §1; assay type: functional
[10] = target: Adrenergic receptor alpha-1 (Homo sapiens) (UniProt P35348+P25100+P35368); test: Inhibition of [3H]prazosin binding to alpha-1 adrenergic receptor at 100 nM compound concentration; assay type: protein assay

Chain of Sodium-dependent serotonin transporter (Rattus norvegicus) (P31652 whole entry): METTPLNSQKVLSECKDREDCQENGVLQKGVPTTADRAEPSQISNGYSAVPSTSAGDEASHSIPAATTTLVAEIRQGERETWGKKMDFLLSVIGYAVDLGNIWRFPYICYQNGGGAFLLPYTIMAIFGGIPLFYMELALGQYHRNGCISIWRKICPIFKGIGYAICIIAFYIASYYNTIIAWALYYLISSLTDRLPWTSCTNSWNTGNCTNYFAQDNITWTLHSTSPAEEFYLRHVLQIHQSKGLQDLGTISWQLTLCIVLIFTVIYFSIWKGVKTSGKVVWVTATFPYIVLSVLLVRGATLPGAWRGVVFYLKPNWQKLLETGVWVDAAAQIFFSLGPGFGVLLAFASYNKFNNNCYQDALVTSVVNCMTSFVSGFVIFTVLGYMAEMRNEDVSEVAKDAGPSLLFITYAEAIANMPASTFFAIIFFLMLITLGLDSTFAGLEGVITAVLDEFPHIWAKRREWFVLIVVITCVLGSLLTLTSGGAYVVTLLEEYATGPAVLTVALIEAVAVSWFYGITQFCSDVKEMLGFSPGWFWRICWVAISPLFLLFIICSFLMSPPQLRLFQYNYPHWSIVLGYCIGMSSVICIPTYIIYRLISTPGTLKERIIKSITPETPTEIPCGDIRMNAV
T1 sequence (P31645 whole entry): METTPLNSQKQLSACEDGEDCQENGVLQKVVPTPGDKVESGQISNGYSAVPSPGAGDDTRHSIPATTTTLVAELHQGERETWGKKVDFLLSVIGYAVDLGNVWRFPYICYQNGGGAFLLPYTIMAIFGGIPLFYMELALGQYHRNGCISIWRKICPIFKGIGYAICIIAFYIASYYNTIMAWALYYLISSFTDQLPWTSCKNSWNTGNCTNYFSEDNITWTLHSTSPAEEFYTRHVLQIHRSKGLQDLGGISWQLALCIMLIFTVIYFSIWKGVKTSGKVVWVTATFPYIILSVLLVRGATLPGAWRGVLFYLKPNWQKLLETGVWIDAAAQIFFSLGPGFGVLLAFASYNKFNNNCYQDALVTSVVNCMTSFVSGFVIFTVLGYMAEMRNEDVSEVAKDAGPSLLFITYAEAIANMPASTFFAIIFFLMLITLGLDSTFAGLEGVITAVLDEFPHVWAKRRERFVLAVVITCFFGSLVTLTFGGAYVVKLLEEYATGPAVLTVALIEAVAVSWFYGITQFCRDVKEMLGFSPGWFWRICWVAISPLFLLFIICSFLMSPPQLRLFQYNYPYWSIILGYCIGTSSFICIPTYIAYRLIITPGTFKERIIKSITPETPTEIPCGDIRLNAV

SMILES | Ki [1] [nM] | inhibition [2] [%] | Ki [3] [nM] | IC50 [4] [nM] | Ki [5] [nM] | inhibition [6] [%] | IC50 [7] [nM] | Emax [8] [%] | Imax [8] [%] | IC50 [9] [nM] | inhibition [10] [%]
COc1cccc2c1O[C@@H](CN1C3C=C(c4ccc5ccccc5c4)CC1CC3)CO2 (stereo partly drawn) | 1.4 | 43 | 229 | 767 | – | – | – | – | – | – | –
CCOc1cccc2c1O[C@@H](CN1[C@@H]3CC[C@H]1C[C@](O)(c1ccccc1)C3)CO2 | – | – | 32.7 | – | 3.05 | 0 | – | – | – | – | –
COc1cccc2c1O[C@@H](CN1C3C=C(n4ccc5cc(F)ccc54)CC1CC3)CO2 (stereo partly drawn) | 8.5 | – | 71 | 138 | 128 | – | – | – | – | – | –
CCOc1cccc2c1O[C@@H](CN1[C@@H]3CC[C@H]1C[C@](O)(c1ccccn1)C3)CO2 | – | – | 147 | – | 61.6 | 6 | – | – | – | – | –
COc1cccc2c1O[C@@H](CN1[C@@H]3CC[C@H]1C[C@](O)(c1csc4ccccc14)C3)CO2 | – | – | 106 | – | 1.6 | 0 | 130 | 0 | 92 | 36 | –
CCOc1cccc2c1O[C@@H](CN1[C@@H]3CC[C@H]1C[C@](O)(c1csc4ccccc14)C3)CO2 | – | – | 123.5 | – | 16.7 | 4 | – | – | – | – | –
COc1cccc2c1O[C@@H](CN1[C@@H]3CC[C@H]1C[C@](O)(c1ccc4ccccc4c1)C3)CO2 | – | – | 42 | – | 0.81 | – | 21 | – | 100 | 9.85 | –
COc1cccc2c1O[C@@H](CN1[C@@H]3CC[C@H]1C[C@](O)(c1ccccn1)C3)CO2 | – | – | – | – | 46 | 0 | – | – | 100 | 1480 | –
COc1cccc2c1O[C@@H](CN1C3C=C(c4cccc5ccccc45)CC1CC3)CO2 (stereo partly drawn) | 26 | – | – | 951 | 357 | – | – | – | – | – | 26
COc1cccc2c1O[C@@H](CN1[C@@H]3CC[C@H]1C[C@](O)(c1ccccc1)C3)CO2 | – | – | – | – | 1.53 | 0 | 21 | – | 100 | 25 | –
COc1cccc2c1O[C@@H](CN1C3C=C(c4ccc(Cl)c(Cl)c4)CC1CC3)CO2 (stereo partly drawn) | 4.69 | 35 | > 1000 | 260 | – | – | – | – | – | – | –
COc1cccc2c1O[C@@H](CN1[C@@H]3CC[C@H]1C[C@](O)(c1cccc(C(F)(F)F)c1)C3)CO2 | – | – | 9.9 | – | 0.33 | 9 | – | 90 | – | – | –
COc1cccc2c1O[C@@H](CN1C3C=C(c4cccc5cccnc45)CC1CC3)CO2 (stereo partly drawn) | 33 | – | 46.2 | 109 | 307 | – | – | – | – | – | –
CCOc1cccc2c1O[C@@H](CN1[C@@H]3CC[C@H]1C[C@](O)(c1cccc(C(F)(F)F)c1)C3)CO2 | – | – | 12.9 | – | 2.92 | 0 | – | – | – | – | –
COc1ccccc1[C@]1(O)C[C@H]2CC[C@@H](C1)N2C[C@H]1COc2cccc(OC)c2O1 | – | – | – | – | 39 | 12 | – | 40 | – | – | –
CCOc1cccc2c1O[C@@H](CN1[C@@H]3CC[C@H]1C[C@](O)(c1ccc4ccccc4c1)C3)CO2 | – | – | 103.5 | – | 5.87 | 0 | – | – | – | – | –
